Data published in PubChem BioAssay AID248 (DTP/NCI, 2004).
Values joined by “and” are separate entries in the source; they are usually repeats but may differ in a detail not shown here. Identical values can stand only once. Inconclusive results and toxic doses are left out. Rule as the data show it: active = T/C of 150% or more; inactive = T/C below 125%.

Test system: L1210 leukemia ip in BDF1 mice, survival T/C
Experiment: NCI In Vivo Anticancer Drug Screen. Data for tumor model L1210 Leukemia (intraperitoneal) in B6D2F1 (BDF1) mice
Conditions: endpoint: mean survival time, higher = longer survival
Summary of the method: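 Mice bearing the transplanted tumor received compound or vehicle. Survival of the treated group was divided by that of the vehicle-treated control group to give the ratio.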

[1] = dose: 100.0 mg/kg/injection, schedule: Q01DX001 (ip), vehicle: saline
[2] = dose: 200.0 mg/kg/injection, schedule: Q01DX001 (ip), vehicle: saline
[3] = dose: 400.0 mg/kg/injection, schedule: Q01DX001 (ip), vehicle: saline
[4] = dose: 50.0 mg/kg/injection, schedule: Q01DX001 (ip), vehicle: saline
[5] = dose: 100.0 mg/kg/injection, schedule: Q01DX009 (ip), vehicle: Klucel (hydroxypropylcellulose) (HPC)
[6] = dose: 200.0 mg/kg/injection, schedule: Q01DX009 (ip), vehicle: Klucel (hydroxypropylcellulose) (HPC)
[7] = dose: 400.0 mg/kg/injection, schedule: Q01DX009 (ip), vehicle: Klucel (hydroxypropylcellulose) (HPC)
[8] = dose: 100.0 mg/kg/injection, schedule: Q04DX003 (ip), vehicle: Klucel (hydroxypropylcellulose) (HPC)
[9] = dose: 200.0 mg/kg/injection, schedule: Q04DX003 (ip), vehicle: Klucel (hydroxypropylcellulose) (HPC)
[10] = dose: 400.0 mg/kg/injection, schedule: Q04DX003 (ip), vehicle: Klucel (hydroxypropylcellulose) (HPC)
[11] = dose: 50.0 mg/kg/injection, schedule: Q04DX003 (ip), vehicle: saline
[12] = dose: 100.0 mg/kg/injection, schedule: Q04DX003 (ip), vehicle: saline
[13] = dose: 200.0 mg/kg/injection, schedule: Q04DX003 (ip), vehicle: saline
[14] = dose: 400.0 mg/kg/injection, schedule: Q04DX003 (ip), vehicle: saline

Measured: T/C

Oc1ccc2ccc(O)cc2c1
inactive: dose: 100.0 mg/kg/injection, schedule: Q04DX002 (ip), vehicle: Klucel (hydroxypropylcellulose) (HPC) 105 % of control | dose: 200.0 mg/kg/injection, schedule: Q04DX002 (ip), vehicle: Klucel (hydroxypropylcellulose) (HPC) 108 % of control | dose: 400.0 mg/kg/injection, schedule: Q04DX002 (ip), vehicle: Klucel (hydroxypropylcellulose) (HPC) 102 % of control

Cc1cc(Cl)c(OCC(=O)O)c(Cl)c1
inactive: [1] 92 % of control | [2] 92 % of control | [3] 94 % of control

Nc1ccccc1S.[Ag]
inactive: [4] 95 % of control | [1] 86 % of control | [2] 91 % of control | [3] 91 % of control

C=COC(=O)NCC(=O)O
inactive: [1] 91 % of control | [2] 97 % of control | [3] 92 % of control

COc1ccc(CCNC(=S)NC(=O)c2ccc(Cl)c(Cl)c2)cc1OC
inactive: [5] 91 % of control | [6] 86 % of control | [7] 93 % of control

N#CS/C=C\C(N)=O
inactive: dose: 3.0 mg/kg/injection, schedule: Q01DX009 (ip), vehicle: Klucel (hydroxypropylcellulose) (HPC) 94 % of control | dose: 6.0 mg/kg/injection, schedule: Q01DX009 (ip), vehicle: Klucel (hydroxypropylcellulose) (HPC) 108 % of control | dose: 12.0 mg/kg/injection, schedule: Q01DX009 (ip), vehicle: Klucel (hydroxypropylcellulose) (HPC) 106 % of control | dose: 12.5 mg/kg/injection, schedule: Q01DX009 (ip), vehicle: Klucel (hydroxypropylcellulose) (HPC) 104 % of control | dose: 12.5 mg/kg/injection, schedule: Q04DX003 (ip), vehicle: Klucel (hydroxypropylcellulose) (HPC) 90 % of control

Nc1ccccc1SC1CC(=O)N(c2ccc(Br)cc2Cl)C1=O (stereo not given)
inactive: dose: 50.0 mg/kg/injection, schedule: Q01DX009 (ip), vehicle: Klucel (hydroxypropylcellulose) (HPC) 90 % of control and 92 % of control | [5] 91 % of control | [8] 98 % of control | [6] 93 % of control and 96 % of control and 91 % of control | [9] 93 % of control | [7] 96 % of control | [10] 93 % of control

O=S(=O)(c1ccc(NC(=S)Oc2ccccc2)cc1)c1ccc(NC(=S)Oc2ccccc2)cc1
inactive: [1] 104 % of control | [2] 104 % of control

O=C1C=CC(=O)N1c1cc(Cl)c(Cl)cc1Cl
inactive: dose: 10.0 mg/kg/injection, schedule: Q01DX001 (ip), vehicle: saline 97 % of control | dose: 20.0 mg/kg/injection, schedule: Q01DX001 (ip), vehicle: saline 87 % of control | dose: 40.0 mg/kg/injection, schedule: Q01DX001 (ip), vehicle: saline 95 % of control

NNCCc1ccccc1
inactive: dose: 6.25 mg/kg/injection, schedule: Q01DX009 (ip), vehicle: saline 105 % of control | dose: 12.5 mg/kg/injection, schedule: Q01DX009 (ip), vehicle: saline 101 % of control | dose: 25.0 mg/kg/injection, schedule: Q01DX009 (ip), vehicle: saline 95 % of control | dose: 25.0 mg/kg/injection, schedule: Q04DX003 (ip), vehicle: saline 120 % of control | dose: 50.0 mg/kg/injection, schedule: Q01DX009 (ip), vehicle: saline 104 % of control | [11] 106 % of control | [12] 111 % of control

CCOC(=O)c1cnc(SC)nc1NCCc1ccccc1
inactive: [5] 98 % of control | [6] 91 % of control | [7] 95 % of control

CCCCCC1OC1C/C=C\CCCCCCCC(=O)OCC(O)COC(=O)CCCCCCC/C=C\CC1OC1CCCCC (stereo not given)
inactive: [1] 97 % of control | [2] 97 % of control | [3] 95 % of control

Cc1cn(C2CC(O)C(COC(c3ccccc3)(c3ccccc3)c3ccccc3)O2)c(=O)[nH]c1=O (stereo not given)
inactive: dose: 100.0 mg/kg/injection, schedule: Q01DX005 (ip), vehicle: saline 104 % of control | dose: 200.0 mg/kg/injection, schedule: Q01DX005 (ip), vehicle: saline 96 % of control

O=C(O)CCc1c2ccc(=O)c(O)c-2oc2c(O)c(O)ccc12
inactive: [12] 106 % of control | [13] 105 % of control | [14] 100 % of control

N#C/C(=C\C=C\c1ccccc1)C(N)=O
inactive: dose: 50.0 mg/kg/injection, schedule: Q01DX009 (ip), vehicle: saline with Tween-80 102 % of control | dose: 100.0 mg/kg/injection, schedule: Q01DX009 (ip), vehicle: saline with Tween-80 96 % of control | dose: 100.0 mg/kg/injection, schedule: Q04DX003 (ip), vehicle: saline with Tween-80 96 % of control | dose: 200.0 mg/kg/injection, schedule: Q01DX009 (ip), vehicle: saline with Tween-80 101 % of control | dose: 200.0 mg/kg/injection, schedule: Q04DX003 (ip), vehicle: saline with Tween-80 100 % of control

Cc1ccnc(NS(=O)(=O)c2ccc(NC(=O)c3ccc(C(=O)Nc4ccc(S(=O)(=O)Nc5nccc(C)n5)cc4)cc3)cc2)n1
inactive: dose: 3.87 mg/kg/injection, schedule: Q01DX015 (ip), vehicle: methylcellulose (MC) 96 % of control | dose: 7.75 mg/kg/injection, schedule: Q01DX015 (ip), vehicle: methylcellulose (MC) 101 % of control | dose: 15.5 mg/kg/injection, schedule: Q01DX015 (ip), vehicle: methylcellulose (MC) 104 % of control | dose: 31.0 mg/kg/injection, schedule: Q01DX015 (ip), vehicle: methylcellulose (MC) 104 % of control | dose: 62.0 mg/kg/injection, schedule: Q01DX015 (ip), vehicle: methylcellulose (MC) 94 % of control | dose: 125.0 mg/kg/injection, schedule: Q01DX015 (ip), vehicle: methylcellulose (MC) 101 % of control | dose: 250.0 mg/kg/injection, schedule: Q01DX015 (ip), vehicle: methylcellulose (MC) 100 % of control | dose: 500.0 mg/kg/injection, schedule: Q01DX015 (ip), vehicle: methylcellulose (MC) 102 % of control

CC(=O)CC(=O)NCc1cccnc1
inactive: [11] 106 % of control | dose: 100.0 mg/kg/injection, schedule: Q01DX009 (ip), vehicle: saline 93 % of control | [12] 97 % of control | dose: 200.0 mg/kg/injection, schedule: Q01DX009 (ip), vehicle: saline 104 % of control | [13] 94 % of control and 100 % of control | dose: 400.0 mg/kg/injection, schedule: Q01DX009 (ip), vehicle: saline 98 % of control | [14] 96 % of control

CC1(C)NC(C(=O)O)CS1 (stereo not given)
inactive: [1] 101 % of control | [2] 90 % of control | [3] 95 % of control

CC(C)C1CCC(C(=O)O)CC1 (stereo not given)
inactive: [5] 102 % of control | [8] 96 % of control | [6] 95 % of control | [9] 100 % of control | [7] 97 % of control | [10] 103 % of control

CC(C)C1CCC(N)CC1 (stereo not given)
inactive: dose: 75.0 mg/kg/injection, schedule: Q01DX001 (ip), vehicle: saline 100 % of control

NC(=S)N/N=C/c1ccccc1S(=O)(=O)O
inactive: [1] 96 % of control | [2] 94 % of control | [3] 102 % of control

O=S(=O)(F)c1ccc(CBr)cc1
inactive: dose: 25.0 mg/kg/injection, schedule: Q01DX001 (ip), vehicle: saline 113 % of control | [4] 123 % of control | [1] 95 % of control and 98 % of control

COC1=C[C@]23CCCN2C[C@H](O)c2cc4c(cc2[C@@H]3[C@@H]1O)OCO4
inactive: dose: 15.0 mg/kg/injection, schedule: Q01DX009 (ip), vehicle: saline 108 % of control | dose: 30.0 mg/kg/injection, schedule: Q01DX009 (ip), vehicle: saline 104 % of control | dose: 60.0 mg/kg/injection, schedule: Q01DX009 (ip), vehicle: saline 100 % of control
